Measurements published in patent US7902373B2 (Pfizer Inc, priority 2006, dated 2011).
pIC50: −log10 of the molar value.

target: human recombinant H-PGDS (Homo sapiens, UniProt O60760); assay: Fluorescence intensity h-PGDS TBA enzyme assay; type: biochemical; details: Examples up to 622 (and 3a, 3b)
Sequence (O60760 whole entry): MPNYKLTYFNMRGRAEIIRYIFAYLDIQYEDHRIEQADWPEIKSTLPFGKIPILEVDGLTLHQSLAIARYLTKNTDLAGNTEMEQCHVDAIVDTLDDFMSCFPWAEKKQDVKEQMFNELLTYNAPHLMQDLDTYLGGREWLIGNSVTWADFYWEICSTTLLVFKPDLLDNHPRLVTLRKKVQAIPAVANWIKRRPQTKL

Row | Compound | pIC50
1 | CCOc1cc(CN2CCC(NC(=O)c3ccc(-c4cccc(F)c4)nc3)CC2)ccc1OC [Example 249, N-[1-(3-Ethoxy-4-methoxybenzyl)piperidin-4-yl]-6-(3-fluorophenyl)nicotinamide] | 8.93
2 | Cc1nn(C)c(C)c1CN1CCC(NC(=O)c2ccc(-c3cccc(F)c3)nc2)CC1 [Example 250, 6-(3-Fluorophenyl)-N-{1-[(1,3-trimethyl-1H-pyrazol-4-yl)methyl]piperidin-4-yl}nicotinamide] | 9.39
3 | CCOc1ccc(CN2CCC(NC(=O)c3ccc(-c4cccc(F)c4)nc3)CC2)cc1OC [Example 253, N-[1-(4-Ethoxy-3-methoxybenzyl)piperidin-4-yl]-6-(3-fluorophenyl)nicotinamide] | 8.84
4 | O=C(NC1CCN(Cc2c[nH]c(=O)[nH]c2=O)CC1)c1ccc(-c2cccc(F)c2)nc1 [Example 254, N-{1-[(2,4-Dioxo-1234-tetrahydropyrimidin-5-yl)methyl]piperidin-4-yl}-6-(3-fluorophenyl)nicotinamide] | 8.77
5 | O=C(NC1CCN(Cc2ccccc2OCCO)CC1)c1ccc(-c2cccc(F)c2)nc1 [Example 255, 6-(3-Fluorophenyl)-N-{1-[2-(2-hydroxyethoxy)benzyl]piperidin-4-yl}nicotinamide] | 9.13
6 | O=C(NC1CCN(Cc2cccc(OCCO)c2)CC1)c1ccc(-c2cccc(F)c2)nc1 [Example 256, 6-(3-Fluorophenyl)-N-{1-[3-(2-hydroxyethoxy)benzyl]piperidin-4-yl}nicotinamide] | 9.40
7 | COc1cc(CN2CCC(NC(=O)c3ccc(-c4cccc(F)c4)nc3)CC2)cc(Cl)c1O [Example 257, N-[1-(3-Chloro-4-hydroxy-5-methoxybenzyl)piperidin-4-yl]-6-(3-fluorophenyl)nicotinamide] | 9.24
8 | O=C(NC1CCN(Cc2cc3ccccc3nn2)CC1)c1ccc(-c2cccc(F)c2)nc1 [Example 261, N-[1-(Cinnolin-3-ylmethyl)piperidin-4-yl]-6-(3-fluorophenyl)nicotinamide] | 8.83
9 | Cc1nc2ccccc2nc1CN1CCC(NC(=O)c2ccc(-c3cccc(F)c3)nc2)CC1 [Example 262, 6-(3-Fluorophenyl)-N-{1-[(3-methylquinoxalin-2-yl)methyl]piperidin-4-yl}nicotinamide] | 8.41
10 | O=C(NC1CCN(Cc2cc(Cl)c(O)c(Cl)c2)CC1)c1ccc(-c2cccc(F)c2)nc1 [Example 267, N-[1-(3,5-Dichloro-4-hydroxybenzyl)piperidin-4-yl]-6-(3-fluorophenyl)nicotinamide] | 9.00
11 | CC(C)(CN1CCC(NC(=O)c2ccc(-c3cccc(F)c3)nc2)CC1)NC(=O)OC(C)(C)C [Example 268, tert-Butyl {2-[4-({[6-(3-fluorophenyl)pyridin-3-yl]carbonyl}amino)piperidin-1-yl]-1,1-dimethylethyl}carbamate] | 8.09
12 | CCN(CC)C(=O)c1ccc(CN2CCC(NC(=O)c3ccc(-c4cccc(F)c4)nc3)CC2)cc1 [Example 271, N-(1-{4-[(Diethylamino)carbonyl]benzyl}piperidin-4-yl)-6-(3-fluorophenyl)nicotinamide] | 8.25
13 | O=C(NC1CCN(Cc2ccc[nH]c2=O)CC1)c1ccc(-c2cccc(F)c2)nc1 [Example 272, 6-(3-Fluorophenyl)-N-{1-[(2-oxo-1,2-dihydropyridin-3-yl)methyl]piperidin-4-yl}nicotinamide] | 9.09
14 | CN(C)CCCOc1ccccc1CN1CCC(NC(=O)c2ccc(-c3cccc(F)c3)nc2)CC1 [Example 273, N-(1-{2-[3-(Dimethylamino)propoxy]benzyl}piperidin-4-yl)-6-(3-fluorophenyl)nicotinamide] | 8.95
15 | CC(C)(C)OCCN1CCC(NC(=O)c2ccc(-c3cccc(F)c3)nc2)CC1 [Example 278, N-[1-(2-tert-Butoxyethyl)piperidin-4-yl]-6-(3-fluorophenyl)nicotinamide] | 8.30
16 | CNS(=O)(=O)c1ccc(CN2CCC(NC(=O)c3ccc(-c4cccc(F)c4)nc3)CC2)cc1 [Example 282, 6-(3-Fluorophenyl)-N-(1-{4-[(methylamino)sulfonyl]benzyl}piperidin-4-yl)nicotinamide] | 9.20
17 | Cc1cccc(CN2CCC(NC(=O)c3ccc(-c4cccc(F)c4)nc3)CC2)n1 [Example 283, 6-(3-Fluorophenyl)-N-{1-[(6-methylpyridin-2-yl)methyl]piperidin-4-yl}nicotinamide] | 9.30
18 | CCOC(=O)Cn1ccc2cc(CN3CCC(NC(=O)c4ccc(-c5cccc(F)c5)nc4)CC3)ccc21 [Example 284, Ethyl (5-{[4-({[6-(3-fluorophenyl)pyridin-3-yl]carbonyl}amino)piperidin-1-yl]methyl}-1H-indol-1-yl)acetate] | 8.84
19 | COc1cccc(C2(CN3CCC(NC(=O)c4ccc(-c5cccc(F)c5)nc4)CC3)CCOCC2)c1 [Example 286, 6-(3-Fluorophenyl)-N-(1-{[4-(3-methoxyphenyl)tetrahydro-2H-pyran-4-yl]methyl}piperidin-4-yl)nicotinamide] | 8.92

Continued by rising pIC50, values first:

Row | pIC50 | Compound
20 | 8.24 | CN(C)CC1(CN2CCC(NC(=O)c3ccc(-c4cccc(F)c4)nc3)CC2)CCCC1 [Example 277, N-[1-({1-[(Dimethylamino)methyl]cyclopentyl}methyl)piperidin-4-yl]-6-(3-fluorophenyl)nicotinamide]
21 | 8.26 | O=C(NC1CCN(Cc2cnn(-c3ccc(F)cc3)c2)CC1)c1ccc(-c2cccc(F)c2)nc1 [Example 275, 6-(3-Fluorophenyl)-N-(1-{[1-(4-fluorophenyl)-1H-pyrazol-4-yl]methyl}piperidin-4-yl)nicotinamide]
22 | 8.37 | COC(=O)c1ccc2c(CN3CCC(NC(=O)c4ccc(-c5cccc(F)c5)nc4)CC3)c[nH]c2c1 [Example 265, Methyl 3-{[4-({[6-(3-fluorophenyl)pyridin-3-yl]carbonyl}amino)piperidin-1-yl]methyl}-1H-indole-6-carboxylate]
23 | 8.38 | CC(C)(C)OC(=O)CCCN1CCC(NC(=O)c2ccc(-c3cccc(F)c3)nc2)CC1 [Example 279, tert-Butyl 4-[4-({[6-(3-fluorophenyl)pyridin-3-yl]carbonyl}amino)piperidin-1-yl]butanoate]
24 | 8.46 | CN(CCCN1CCC(NC(=O)c2ccc(-c3cccc(F)c3)nc2)CC1)C(=O)OC(C)(C)C [Example 269, tert-Butyl {3-[4-({[6-(3-fluorophenyl)pyridin-3-yl]carbonyl}amino)piperidin-1-yl]propyl}methylcarbamate]
25 | 8.59 | CCn1nc(C)c(CN2CCC(NC(=O)c3ccc(-c4cccc(F)c4)nc3)CC2)c1C [Example 274, N-{1-[(1-Ethyl-3,5-dimethyl-1H-pyrazol-4-yl)methyl]piperidin-4-yl}-6-(3-fluorophenyl)nicotinamide]
26 | 8.67 | Cc1nc(CN2CCC(NC(=O)c3ccc(-c4cccc(F)c4)nc3)CC2)c[nH]1 [Example 266, 6-(3-Fluorophenyl)-N-{1-[(2-methyl-1H-imidazol-4-yl)methyl]piperidin-4-yl}nicotinamide]
27 | 8.70 | Cn1cc(CN2CCC(NC(=O)c3ccc(-c4cccc(F)c4)nc3)CC2)c(=O)n(C)c1=O [Example 264, N-{1-[(1,3-Dimethyl-2,4-dioxo-1,2,3,4-tetrahydropyrimidin-5-yl)methyl]piperidin-4-yl}-6-(3-fluorophenyl)nicotinamide]
28 | 8.74 | CC(C)(C)OC(=O)NCCCN1CCC(NC(=O)c2ccc(-c3cccc(F)c3)nc2)CC1 [Example 281, tert-Butyl {3-[4-({[6-(3-fluorophenyl)pyridin-3-yl]carbonyl}amino)piperidin-1-yl]propyl}carbamate]
29 | 8.77 | CS(=O)(=O)c1ccc(CN2CCC(NC(=O)c3ccc(-c4cccc(F)c4)nc3)CC2)cc1 [Example 259, 6-(3-Fluorophenyl)-N-{1-[4-(methylsulfonyl)benzyl]piperidin-4-yl}nicotinamide]
30 | 8.82 | COc1ccccc1C1(CN2CCC(NC(=O)c3ccc(-c4cccc(F)c4)nc3)CC2)CCOCC1 [Example 285, 6-(3-Fluorophenyl)-N-(1-{[4-(2-methoxyphenyl)tetrahydro-2H-pyran-4-yl]methyl}piperidin-4-yl)nicotinamide]
31 | 8.91 | O=C(NC1CCN(Cc2ccc(OCCO)cc2)CC1)c1ccc(-c2cccc(F)c2)nc1 [Example 258, 6-(3-Fluorophenyl)-N-{1-[4-(2-hydroxyethoxy)benzyl]piperidin-4-yl}nicotinamide]
32 | 8.94 | O=C(NC1CCN(Cc2cnc3ccccc3n2)CC1)c1ccc(-c2cccc(F)c2)nc1 [Example 263, 6-(3-Fluorophenyl)-N-[1-(quinoxalin-2-ylmethyl)piperidin-4-yl]nicotinamide]
33 | 9.06 | O=C(NC1CCN(Cc2c[nH]c3ccc(F)cc23)CC1)c1ccc(-c2cccc(F)c2)nc1 [Example 252, N-{1-[(5-Fluoro-1H-indol-3-yl)methyl]piperidin-4-yl}-6-(3-fluorophenyl)nicotinamide]
34 | 9.07 | CS(=O)(=O)Nc1ccc(CN2CCC(NC(=O)c3ccc(-c4cccc(F)c4)nc3)CC2)cc1 [Example 280, 6-(3-Fluorophenyl)-N-(1-{4-[(methylsulfonyl)amino]benzyl}piperidin-4-yl)nicotinamide]
35 | 9.13 | CCn1cc(CN2CCC(NC(=O)c3ccc(-c4cccc(F)c4)nc3)CC2)c(C)n1 [Example 276, N-{1-[(1-Ethyl-3-methyl-1H-pyrazol-4-yl)methyl]piperidin-4-yl}-6-(3-fluorophenyl)nicotinamide]
36 | 9.21 | CC(C)(C)CN1CCC(NC(=O)c2ccc(-c3cccc(F)c3)nc2)CC1 [Example 251, N-[1-(2,2-Dimethylpropyl)piperidin-4-yl]-6-(3-fluorophenyl)nicotinamide]
37 | 9.24 | COc1ccc(CN2CCC(NC(=O)c3ccc(-c4cccc(F)c4)nc3)CC2)c(Cl)c1OC [Example 260, N-[1-(2-Chloro-3,4-dimethoxybenzyl)piperidin-4-yl]-6-(3-fluorophenyl)nicotinamide]
38 | 9.29 | Cc1c(CN2CCC(NC(=O)c3ccc(-c4cccc(F)c4)nc3)CC2)c(=O)n(C)c(=O)n1C [Example 270, 6-(3-Fluorophenyl)-N-{1-[(1,3,6-trimethyl-2,4-dioxo-1,2,3,4-tetrahydropyrimidin-5-yl)methyl]piperidin-4-yl}nicotinamide]
